From patent US20120172344A1, “INSULIN-PRODUCING CELL INDUCER, GLUCOSE INTAKE ENHANCER, AND THERAPEUTIC AGENT FOR DIABETES OR DIABETES COMPLICATIONS” (KYUSHU UNIVERSITY, NATIONAL UNIVERSITY CORPORATION, priority 2009, published 2012)

System: Tg23 mice
Assay: Experimental Example 4: blood glucose, blood parameters, food consumption and oral glucose tolerance test
Format: in vivo, mouse
Details: for blood glucose level: Tg23 mice 11 weeks of age
Method: Blood glucose levels were measured by an enzyme-electrode method with ONE TOUCH UltraVue (Johnson & Johnson K.K.) on whole blood taken from tail veins of subject animals.
Immediately before collecting organs, blood parameters were measured using various methods and measurement kits described below in blood collected from the hearts of animals anesthetized with nembutal.
(c) Blood urea nitrogen (BUN): Urease UV method,
(d) Aspartate aminotransferase (AST) and alanine aminotransferase (ALT): JSCC standardization method,
(e) Serum insulin concentration: Enzyme-linked immunosorbent assay kit (Morinaga Institute of Biological Science),
(f) Serum glucagon concentration: YK142 Mouse […] EIA kit (Yanaihara Institute Inc.),
(g) Total serum cholesterol level: Enzymatic assay reagent (Wako Pure Chemical Industries),
After a 16-hour fast, mice were administered with glucose (1 g/kg of body weight) by gavage. Blood samples were collected from the tail vein at 0, 15, 30, 60, 90, and 120 minutes after the oral administration, and blood glucose levels were measured. In addition, blood samples were collected from the tail vein in a similar manner at 0, 15, and 30 minutes after the oral administration, and serum insulin concentrations were measured.
Subject mice were individually housed in metabolic cages for four days to assess food consumption (g/24 h) and water consumption (ml/24 h). During measurement, food and water were supplied to the mice ad libitum. Measurements were repeated three times for each group.
Tg23 mice (11 weeks of age) were divided into four groups (each group: n=4 to 10): an estradiol administration group (E only group), a testectomy group (Tx only group), a testectomy-and-estradiol administration group (Tx+E group), and a control group (Tg group). For E only group, sham surgery of testectomy (Tx) was performed, and a single pellet of 17β-estradiol (E) was subcutaneously administered at the nape of the neck. […] For Tx+E group, testectomy was performed, and a single pellet of 17β-estradiol was subcutaneously administered at the nape of the neck.
Then, blood glucose levels (mg/dl) were measured every week for E only group, Tx only group, Tx+E group, and Tg group, and wild-type mice (WT). In addition, measurements were performed with Tx+E group, Tg group, and wild-type mice (WT), for serum insulin concentrations (pg/mL), serum glucagon concentrations (pg/mL), blood urea nitrogen (BUN) concentrations (mg/dL), total serum cholesterol levels ([…]), aspartate aminotransferase (AST)/alanine aminotransferase (ALT), and food consumption per day (g/day). Furthermore, oral glucose tolerance test was performed, and changes in blood glucose level and serum insulin concentration over time were measured.

[1] = Tx+E mice, glucose 1 g/kg by gavage after 16-hour fast

## C[C@]12CC[C@@H]3c4ccc(O)cc4CC[C@H]3[C@@H]1CC[C@@H]2O [estradiol, 17β-estradiol]
E only group (sham surgery + 17β-estradiol pellet s.c.)
  blood glucose level: effective for reducing blood glucose level
Tx+E group (testectomy + 17β-estradiol pellet s.c.)
  blood glucose level: effective for reducing blood glucose level
Tx+E mice
  AST/ALT: returned to normal
  blood urea nitrogen (BUN): returned to normal
  food consumption per day: returned to normal
  serum glucagon: returned to normal
  serum insulin level: largely increased
  total serum cholesterol: returned to normal
[1]
  blood glucose level in oral glucose tolerance test: returned to basal level after a time point of 180 minutes
  insulin secretion in oral glucose tolerance test: increased
